Assay: carotenoids in neonatal brain samples
Settings: neonatal brain samples studied by the Applicants

| Structure (SMILES) | carotenoid occurrence in neonatal brain samples |
| --- | --- |
| CC(C)=CCC/C(C)=C/C=C/C(C)=C/C=C/C(C)=C/C=C/C=C(C)/C=C/C=C(C)/C=C/C=C(\C)CCC=C(C)C [lycopene] | very few neonatal brain samples are found to contain detectable levels |
| CC1=CC(O)CC(C)(C)[C@H]1/C=C/C(C)=C/C=C/C(C)=C/C=C/C=C(C)/C=C/C=C(C)/C=C/C1=C(C)C[C@@H](O)CC1(C)C (stereo partly drawn) [trans-lutein] | predominant carotenoid in the majority of neonatal brain samples |
